ChEMBL document CHEMBL3046375, “Antifungal activity of simple compounds with maleic anhydride or dimethylmaleimide structure against Botrytis cinerea” (J Pestic Sci, 2012)
Values after ≈ are worked out from the molar mass of the structure shown.

Tests used:
[1] = test system: Botrytis cinerea; experiment: Antifungal actiivty against Botryotinia fuckeliana ACCC 30387 assessed as inhibition of radial growth after 3 days; type: functional; details: ACCC 30387, 72 h
[2] = test system: Botrytis cinerea; experiment: Antifungal actiivty against Botryotinia fuckeliana; type: functional

| MIC [1] | MIC [2] | SMILES |
| --- | --- | --- |
| 5 µg/mL (≈ 23.2 µM) |  | CC1=C(C)C(=O)N(Cc2ccccc2)C1=O |
| 75 µg/mL (≈ 327 µM) |  | CC1=C(C)C(=O)N(CCc2ccccc2)C1=O |
| 10 µg/mL (≈ 41.1 µM) |  | CC1=C(C)C(=O)N(CCCc2ccccc2)C1=O |
| > 1000 µg/mL |  | Cc1ccc2c(c1)C(=O)OC2=O |
| > 1000 µg/mL |  | O=C(O)c1ccc2c(c1)C(=O)OC2=O |
| 500 µg/mL (≈ 3010 µM) |  | O=C1OC(=O)c2c(F)cccc21 |
| 150 µg/mL (≈ 815 µM) |  | O=C1OC(=O)c2c(F)ccc(F)c21 |
| 500 µg/mL (≈ 2270 µM) |  | O=C1OC(=O)c2c(F)c(F)c(F)c(F)c21 |
| 500 µg/mL (≈ 2300 µM) |  | O=C1OC(=O)c2cc(Cl)c(Cl)cc21 |
| > 1000 µg/mL |  | O=C1OC(=O)c2c1ccc(Cl)c2Cl |
| > 1000 µg/mL |  | O=C1OC(=O)c2c(Cl)ccc(Cl)c21 |
| 1000 µg/mL (≈ 5650 µM) |  | O=C1C=C(Br)C(=O)O1 |
| 150 µg/mL (≈ 861 µM) |  | O=C1C=C(c2ccccc2)C(=O)O1 |
| 20 µg/mL (≈ 79.9 µM) |  | O=C1OC(=O)C(c2ccccc2)=C1c1ccccc1 |
| 100 µg/mL (≈ 599 µM) |  | O=C1OC(=O)C(Cl)=C1Cl |
| 3 µg/mL (≈ 23.8 µM) |  | CC1=C(C)C(=O)OC1=O |
| 10 µg/mL (≈ 48.8 µM) |  | CC1=C(CBr)C(=O)OC1=O |
| > 1000 µg/mL |  | CC1=C(CO)C(=O)OC1=O |
| 8 µg/mL (≈ 28.1 µM) |  | CCOC(=O)C(CC1=C(C)C(=O)OC1=O)C(=O)OCC |
| 80 µg/mL (≈ 434 µM) |  | CC1=C(CCC(=O)O)C(=O)OC1=O |
| 125 µg/mL (≈ 440 µM) |  | O=C1OC(=O)C(CBr)=C1CBr |
| 25 µg/mL (≈ 162 µM) |  | CCCC1=C(C)C(=O)OC1=O |

| MIC [1] | MIC [2] | SMILES |
| --- | --- | --- |
| 5 µg/mL (≈ 27.4 µM) |  | CCCCCC1=C(C)C(=O)OC1=O |
| 4 µg/mL (≈ 20.4 µM) |  | CCCCCCC1=C(C)C(=O)OC1=O |
| 3 µg/mL (≈ 11.9 µM) |  | CCCCCCCCCCC1=C(C)C(=O)OC1=O |
| 20 µg/mL (≈ 109 µM) |  | CC(=O)OCC1=C(C)C(=O)OC1=O |
| 15 µg/mL (≈ 60.9 µM) |  | CC1=C(COC(=O)c2ccccc2)C(=O)OC1=O |
| 50 µg/mL (≈ 175 µM) |  | CC1=C(CNc2cc(Cl)cc(Cl)c2)C(=O)OC1=O |
| 5 µg/mL (≈ 27.6 µM) |  | CCCCN1C(=O)C(C)=C(C)C1=O |
| 50 µg/mL (≈ 276 µM) |  | CC1=C(C)C(=O)N(CC(C)C)C1=O |
| 5 µg/mL (≈ 25.6 µM) |  | CCCCCN1C(=O)C(C)=C(C)C1=O |
| 5 µg/mL (≈ 23.9 µM) |  | CCCCCCN1C(=O)C(C)=C(C)C1=O |
| 50 µg/mL (≈ 211 µM) |  | CCCCCCCCN1C(=O)C(C)=C(C)C1=O |
| 50 µg/mL (≈ 170 µM) |  | CCCCCCCCCCCCN1C(=O)C(C)=C(C)C1=O |
| 10 µg/mL (≈ 48.2 µM) |  | CC1=C(C)C(=O)N(C2CCCCC2)C1=O |
| 5 µg/mL (≈ 23.2 µM) |  | CC1=C(C)C(=O)N(c2ccc(C)cc2)C1=O |
| 10 µg/mL (≈ 42.4 µM) |  | CC1=C(C)C(=O)N(c2ccc(Cl)cc2)C1=O |
| 0.1 µg/mL (≈ 0.37 µM) |  | CC1=C(C)C(=O)N(c2cc(Cl)cc(Cl)c2)C1=O |
| 10 µg/mL (≈ 38.4 µM) |  | CC1=C(C)C(=O)N(c2cccc([N+](=O)[O-])c2C)C1=O |
| 10 µg/mL (≈ 41.5 µM) |  | CC1=C(C)C(=O)N(c2nc3ccccc3[nH]2)C1=O |
| 1 µg/mL (≈ 3.92 µM) |  | CC1=C(C)C(=O)N(c2ccc(F)c(F)c2F)C1=O |
|  | 0.78 µg/mL (≈ 2 µM) | CCCCC1CC2=C(CC(C(O)CCCC)C3=C1C(=O)OC3=O)C(=O)OC2=O (stereo unspecified) |
| 1 µg/mL (≈ 4.97 µM) |  | CC1=C(C)C(=O)N(c2ccccc2)C1=O |

| SMILES | MIC [1] | MIC [2] |
| --- | --- | --- |
| Nc1c(Cl)cc([N+](=O)[O-])cc1Cl [ALLISAN] | 0.1 µg/mL (≈ 0.483 µM) |  |
| O=C1C=CC(=O)O1 [MALEIC ANHYDRIDE] | 250 µg/mL (≈ 2550 µM) |  |
| O=C1OC(=O)c2ccccc21 [PHTHALIC ANHYDRIDE] | > 1000 µg/mL |  |
